Where two headings read alike, the source gives them in different places.

One assay deals with WT MtIPMS (Mycobacterium tuberculosis, UniProt P9WQB3). Briefly: Steady-state kinetic analysis. It counts as biochemical.
Another assay addresses wild-type MtIPMS (Mycobacterium tuberculosis, UniProt P9WQB3). It counts as biochemical.
Another assay concerns the target WT IPMS (Mycobacterium tuberculosis, UniProt P9WQB3). Format: binding. Conditions: ITC.

WT IPMS, sequence (P9WQB3 whole entry): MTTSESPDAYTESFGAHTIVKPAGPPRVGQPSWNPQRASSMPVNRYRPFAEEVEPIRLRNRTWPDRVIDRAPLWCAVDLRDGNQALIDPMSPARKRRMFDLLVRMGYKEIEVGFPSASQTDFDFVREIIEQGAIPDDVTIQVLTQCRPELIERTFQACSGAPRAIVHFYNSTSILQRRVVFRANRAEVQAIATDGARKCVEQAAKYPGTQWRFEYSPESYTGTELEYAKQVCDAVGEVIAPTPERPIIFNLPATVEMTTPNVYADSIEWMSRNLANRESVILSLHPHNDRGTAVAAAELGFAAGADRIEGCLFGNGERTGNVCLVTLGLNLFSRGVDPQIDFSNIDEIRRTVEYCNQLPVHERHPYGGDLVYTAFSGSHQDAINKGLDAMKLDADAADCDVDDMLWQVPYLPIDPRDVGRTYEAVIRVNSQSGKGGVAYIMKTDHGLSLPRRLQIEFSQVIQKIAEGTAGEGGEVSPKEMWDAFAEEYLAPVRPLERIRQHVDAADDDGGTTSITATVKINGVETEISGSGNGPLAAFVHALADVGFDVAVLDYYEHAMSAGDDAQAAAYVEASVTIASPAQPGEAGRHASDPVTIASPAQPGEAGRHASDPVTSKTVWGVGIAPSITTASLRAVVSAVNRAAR
WT MtIPMS, sequence (P9WQB3 whole entry): as above
wild-type MtIPMS, sequence (P9WQB3 whole entry): as above

Turning to `CC(=O)SCCNC(=O)CCNC(=O)[C@H](O)C(C)(C)COP(=O)(O)OP(=O)(O)OC[C@H]1O[C@@H](n2cnc3c(N)ncnc32)[C@H](O)[C@@H]1OP(=O)(O)O` [Acetyl-CoA, acetyl-coenzyme A], the Michaelis constant (Km) on WT MtIPMS (read-out: K1 (Km), varied substrate Acetyl-CoA) was 24 ± 2 µM. Also, the “kcat1 (kcat)” value on WT MtIPMS (varied substrate Acetyl-CoA) is 2.72 ± 0.05 s⁻¹.

With `CC(C)C[C@H](N)C(=O)O` [L-leucine], on wild-type MtIPMS, the “activity retained at saturating L-leucine” value is reported as “approximately 10%” and the “β (fractional activity at saturating inhibitor)” value is given as 0.1. For the same molecule, on WT IPMS, the “N (stoichiometry for binding)” value is on record as 0.86 ± 0.02, the ΔH turned out to be 0.774 ± 0.02 kcal/mol and the ΔS worked out at 27.8 cal/mol/K.

Turning to `CC(C)C(=O)C(=O)O` [α-KIV, α-ketoisovalerate], at WT MtIPMS (read-out: K1 (Km), varied substrate α-KIV), the Km amounted to 7.1 ± 0.5 µM. The “kcat1 (kcat)” value on WT MtIPMS (varied substrate α-KIV) amounted to 2.53 ± 0.05 s⁻¹.
